What was measured:
Test in all cases: relative viability (nuclei count vs DMSO), 5 days (fraction); higher = more cells survive
CUDC-101 + Navitoclax = compound: C#Cc1cccc(Nc2ncnc3cc(OC)c(OCCCCCCC(=O)NO)cc23)c1 [CUDC-101] + CC1(C)CCC(c2ccc(Cl)cc2)=C(CN2CCN(c3ccc(C(=O)NS(=O)(=O)c4ccc(N[C@H](CCN5CCOCC5)CSc5ccccc5)c(S(=O)(=O)C(F)(F)F)c4)cc3)CC2)C1 [Navitoclax] (partner 0.5 µM)
Outline: (§1)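 Lung cancer cell lines were seeded in 1536-well plates and dosed by pin tool the next day, with either a single drug or a fixed anchor-drug dose combined with five library-drug doses (not always all listed) spaced in √10 steps. Five days later, one step fixed the cells and stained their nuclei (final 0.05% Triton X-100, 1% formaldehyde, 1 ug/ml Hoechst), and nuclei were counted on 4× images. Relative viability is the nuclei count in treated wells divided by the count in vehicle wells, and each value is the median of duplicate plates.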

NVP-TAE684 + Palbociclib = compound: COc1cc(N2CCC(N3CCN(C)CC3)CC2)ccc1Nc1ncc(Cl)c(Nc2ccccc2S(=O)(=O)C(C)C)n1 [NVP-TAE684] + CC(=O)c1c(C)c2cnc(Nc3ccc(N4CCNCC4)cn3)nc2n(C2CCCC2)c1=O [Palbociclib] (partner 0.5 µM)
Outline: as §1

CUDC-101 + Trametinib = compound: C#Cc1cccc(Nc2ncnc3cc(OC)c(OCCCCCCC(=O)NO)cc23)c1 [CUDC-101] + CC(=O)Nc1cccc(-n2c(=O)n(C3CC3)c(=O)c3c(Nc4ccc(I)cc4F)n(C)c(=O)c(C)c32)c1 [Trametinib] (partner 0.02 µM)
Outline: as §1

| Cell Line | relative viability (CUDC-101 + Navitoclax; first compound 0.01 µM) | relative viability (CUDC-101 + Navitoclax; first compound 0.03162 µM) | relative viability (CUDC-101 + Navitoclax; first compound 0.1 µM) | relative viability (CUDC-101 + Navitoclax; first compound 0.3162 µM) | relative viability (CUDC-101 + Navitoclax; first compound 1 µM) | relative viability (NVP-TAE684 + Palbociclib; first compound 0.2 µM) | relative viability (NVP-TAE684 + Palbociclib; first compound 0.6325 µM) | relative viability (NVP-TAE684 + Palbociclib; first compound 2 µM) | relative viability (CUDC-101 + Trametinib; first compound 0.01 µM) | relative viability (CUDC-101 + Trametinib; first compound 0.03162 µM) | relative viability (CUDC-101 + Trametinib; first compound 0.1 µM) | relative viability (CUDC-101 + Trametinib; first compound 0.3162 µM) | relative viability (CUDC-101 + Trametinib; first compound 1 µM) |
| --- | --- | --- | --- | --- | --- | --- | --- | --- | --- | --- | --- | --- | --- |
| NCI-H727 | 0.377 | 0.413 | 0.417 | 0.304 | 0.269 | 0.638 | 0.623 | 0.516 | 0.394 | 0.374 | 0.418 | 0.371 | 0.353 |
| PC-3 [JPC-3] | 0.776 | 0.749 | 0.506 | 0.613 | 0.342 | 0.53 | 0.521 | 0.422 | 0.608 | 0.519 | 0.494 | 0.455 | 0.323 |
| NCI-H1792 | 0.586 | 0.636 | 0.56 | 0.625 | 0.582 | 0.606 | 0.615 | 0.648 | 0.607 | 0.322 | 0.439 | 0.453 | 0.359 |
| NCI-H1355 | 1.01 | 0.735 | 0.939 | 0.825 | 0.73 | 0.366 | 0.368 | 0.269 | 0.423 | 0.399 | 0.411 | 0.46 | 0.317 |
| HCC-827 | 1.1 | 0.66 | 0.271 | 0.184 | 0.167 | 0.452 | 0.511 | 0.5 | 0.53 | 0.257 | 0.18 | 0.183 | 0.147 |
| NCI-H1944 | 1.02 | 1.03 | 1.01 | 1.09 | 0.861 | 0.313 | 0.321 | 0.236 | 0.375 | 0.422 | 0.415 | 0.388 | 0.373 |
| NCI-H2405 | 1.12 | 0.842 | 0.953 | 1.17 | 0.665 | 0.524 | 0.525 | 0.337 | 0.682 | 0.558 | 0.658 | 0.779 | 0.551 |
| NCI-H650 | – | – | – | – | – | 0.313 | 0.319 | 0.318 | 1.06 | 0.864 | 1.08 | 1.16 | 0.911 |
| HCC-366 | 1.1 | 0.875 | 1.06 | 1.08 | 0.844 | 0.352 | 0.4 | 0.166 | 0.391 | 0.378 | 0.312 | 0.366 | 0.209 |
| NCI-H838 | 1.23 | 1.1 | 1.3 | 1.21 | 0.985 | 0.199 | 0.197 | 0.141 | 0.579 | 0.504 | 0.544 | 0.591 | 0.423 |
| IA-LM | 0.685 | 0.806 | 0.698 | 0.832 | 0.281 | – | – | – | – | – | – | – | – |
| NCI-H520 | 1.04 | – | 1.03 | 0.987 | 0.316 | 0.227 | 0.267 | 0.152 | 0.572 | 0.688 | 0.788 | 0.674 | 0.251 |
| NCI-H2342 | – | – | – | – | – | 0.499 | 0.459 | 0.457 | 0.789 | 0.947 | 0.814 | 0.819 | 0.777 |
| NCI-H358 | – | – | – | – | – | 0.125 | 0.121 | 0.0895 | 0.142 | 0.135 | 0.119 | 0.143 | 0.115 |
